Holding throughout (format): physicochemical
Data set [1] is described as follows: Solubility of saturated solutions in aqueous media, HPLC/UV. The settings on record: for Löslichkeit: 0.5 h; for solubility thermodynamic at 0.5 h: saturated solution, n=1, 30 min ultrasound, read-out: Löslichkeit. As to the method:
(§1) Insbesondere wurde zur Bestimmung der Schüttdichte jeweils etwa 250 ml Substanz, möglichst erschütterungsfrei in einen 250 ml Meßzylinder des Schütt-Stampf-Volumeters (Erweka SVM 22, Ser. Nr. 108.480.446) gefüllt und die Masse bestimmt (Schüttgewicht). Anschließend wurde der Meßzylinder 1250 Stampfvorgängen ausgesetzt, und das Stampfvolumen wurde abgelesen. Die Werte für die Schütt- bzw. Stampfdichte erhält man durch Division der Einwaage durch die jeweiligen Volumenwerte. Die Bestimmung wurde dreifach durchgeführt und aus den Einzelergebnissen jeweils der Mittelwert gebildet. Die Löslichkeit wurde bei Zimmertemperatur (25°C) bei verschiedenen pH-Werten untersucht, indem festes Material in den jeweiligen Medien durch Ultraschall und Schütteln soweit als möglich gelöst wurde. Die Proben wurden filtriert und über HPLC analysiert und mittels UV-Detektion vermessen.
Die Löslichkeit des Zinksalzes des (-)-Enantiomers des Omeprazols und des Magnesiumsalzes des (-)-Enantiomers des Omeprazols wurde wie folgt bestimmt. In den unten aufgeführten Medien wurden gesättigte Lösungen (n=1) hergestellt, die nach 30 Minuten Ultraschallbehandlung noch einen deutlichen Bodensatz zeigten. Der Überstand der gesättigten Lösungen wurde über einen Membranfilter (0,45µm, Millex HV 25 mm, Millipore) filtriert und die klare Lösung mittels einer HPLC-Methode auf den Gehalt des gelösten Salzes untersucht. (Reversed Phase Chromatographie, Gradientenmodus, Säule: Luna C18(2), 150 x 3 mm, Phenomenex, Eluent 1: 10mM Tris-(hydroxymethyl)-aminomethan-Puffer pH 9.0, Eluent 2 : Acetonitril).
Das Zinksalz des (-)-Enantiomers des Omeprazols wurde gemäß Beispiel 1 vorstehend hergestellt, das Magnesiumsalz des (-)-Enantiomers des Omeprazols gemäß der Offenbarung der WO 94/27988.

The nature of data set [2]: Water content by Karl Fischer titration (Ph.Eur. 2.5.32). The note with it: oven temperature 130 °C. From the text: Während das Magnesiumsalz als Trihydrat vorliegt und daher per se einen erheblichen Wassergehalt von etwa 6,23% aufweist, ist der Wassergehalt des Zinksalzes des (-)-Enantiomers des Omeprazols ausgesprochen gering und liegt bei nur etwa 0,8%, was ebenfalls einen überraschenden Vorteil des Zinksalzes des (-)-Enantiomers des Omeprazols ausmacht. Diese Messungen erfolgten mittels Karl-Fischer-Titration gemäß Ph.Eur. 2.5.32 mit dem Gerät Aqua 40.00 (Fa. ECH Halle). Das Gerät war ausgestattet mit einem Ausheizofen für Feststoffproben. Die Ausheiztemperatur für die untersuchte substanz betrug 130 °C: Als KF-Reagenz wurde eingesetzt Hydranal (Coulomat AG, Riedel-de Haen. Als Standard wurde verwendet Natriumtartrat-dihydrat (Apura, Merck).

The nature of data set [3]: Bulk density and tapped density (Ph.Eur. 2.9.15, Erweka SVM 22 volumeter, 1250 taps). The note with it: mean of three determinations; for Stampfdichte: after 1250 taps. The method, then:
Sofern nichts anderes angegeben ist, erfolgt die Bestimmung der Schüttdichte und Stampfdichte nach Ph.Eur. 5.0 General Notices 2.9.15.
as §1
Auf folgende Art und Weise wurde die Schüttdichte und die Stampfdichte des nach Beispiel 1 hergestellten Zinksalzes des (-)-Enantiomers des Omeprazols bestimmt und mit den auf entsprechende Art und Weise bestimmten Werten des Magnesiumsalzes des (-)-Enantiomers des Omeprazols verglichen. Das Magnesiumsalz des (-)-Enantiomers des Omeprazols wurde entsprechend der Offenbarung der WO 94/27988 hergestellt.
Zur Bestimmung der Schüttdichte wurden jeweils 250 ml Substanz möglichst erschütterungsfrei in einen 250 ml Meßzylinder des Schütt-Stampf-Volumeters (Erweka SVM 22, Ser. Nr. 108.480.446) gefüllt und die Masse bestimmt (Schüttgewicht). Anschließend wurde der Meßzylinder 1250 Stampfvorgängen ausgesetzt, und das Stampfvolumen wurde abgelesen. Die Werte für die Schütt- bzw. Stampfdichte erhält man durch Division der Einwaage durch die jeweiligen Volumenwerte. Die Bestimmung wurde dreifach durchgeführt und aus den Einzelergebnissen jeweils der Mittelwert gebildet. Tabelle 1

Values after ≈ are worked out from the molar mass of the structure shown. Read-outs that look alike come from different tables or passages of the source.

Consider “Zinksalz des (-)-Enantiomers von Omeprazol [Zinksalz des (-)-Enantiomers des Omeprazols]”, for which the Löslichkeit in data set [1] (demineralised water) was 0,02 mg/ml; in data set [1] (usp buffer, pH 6), 0,07 mg/ml; in data set [1] (usp buffer, pH 7) it was 0,04 mg/ml. In addition, in data set [2], the Wassergehalt was ~0,8%. Further, the Stampfdichte in data set [3] is reported as 481,59 g/l. Moreover, the Schüttdichte in data set [3] is 415,62 g/l.

As for `COc1ccc2nc([S@@+]([O-])Cc3ncc(C)c(OC)c3C)[nH]c2c1` [Magnesiumsalz des (-)-Enantiomers des Omeprazols], the solubility thermodynamic at 0.5 h in data set [1] (demineralised water, dem. Wasser) was found to be 930 µg/mL (≈ 2690 µM); in data set [1] (usp buffer, pH 6, aqueous buffer, USP-Puffer pH 6,0) it was 780 µg/mL (≈ 2260 µM); in data set [1] (usp buffer, pH 6, aqueous buffer, USP-Puffer pH 6,8) it was 900 µg/mL (≈ 2610 µM); in data set [1] (usp buffer, pH 7, aqueous buffer, USP-Puffer pH 7,4), 890 µg/mL (≈ 2580 µM). Also, the Wassergehalt in data set [2] was ~6,23%. The Stampfdichte in data set [3] was 242,68 g/l. Moreover, the Schüttdichte in data set [3] is recorded as 199,00 g/l.
